The text below walks through data of patent US6737423B2, “Substituted heterocyclo-norbornylamino derivatives, processes for their preparation, their use as medicaments or diagnostics, and medicaments comprising them” (Aventis Pharma Deutschland GmbH, priority 2000, dated 2004).

Where a name gives a salt, the structure may show the parent alone.

One series has as its target T1, Rat NHE3 (Rattus norvegicus, UniProt P26433).
T1 construct: expressed in transfected cells; host or cells: LAP1 (NHE-deficient cell line), stably transfected with pMAMneo plasmid
Briefly: NHE activity measurement (pHi recovery after acid load, transfected LAP1 cells). The conditions noted are these: stably transfected LAP1 cells, pH recovery recorded for 3 minutes, BCECF. Format: cell-based. The source says: In the context of our studies, stably transfected cell lines were produced that in each case expressed one of the following NHE subtypes: Human NHE1 (Sardet et al. Cell 56:271-280 (1989)), rabbit NHE2 (Tse et al.; J. Biol. Chem. 268:11917-11924 (1993)), human NHE3 (Brant et al. Am. J. Physiol. 269 (Cell Physiol. 38) C198-C206 (1995)), or rat NHE3 (Orlowski et al.; J. Biol. Chem. 267:9331-9339 (1992)).
The cDNA clones of the respective NHE subtypes obtained by Prof. Pouyssegur were, after addition of suitable linker sequences, cloned into the expression plasmid pMAMneo (obtainable, for example, via CLONTECH, Heidelberg) such that the recognition sequence for the restriction endonuclease Nhel of the plasmid was approximately 20-100 Basepairs before the start codon of the respective NHE subtype and that the total coding sequence was present in the construct. In the case of the human NHE3 obtained from human kidney mRNA by means of RT-PCR, the RT-PCR primers were selected such that the cDNA band obtained had cleavage sites suitable for pMAMneo at its ends.
Using the “calcium phosphate method” (described in chapter 9.1 of “Current Protocols in Molecular Biology”), the NHE-deficient cell line LAP1 (Franchi et al.; Proc. Natl. Acad. Sci. USA 83:9388-9392 (1986)) was transfected with the plasmids that received the respective coding sequences of the NHE subtypes. […]
In this test, the recovery of the intracellular pH (pHi) after an acidification, which in the case of functional NHE occurs even under bicarbonate-free conditions, was determined. For this, the pHi was determined using the pH-sensitive fluorescent dye BCECF (Calbiochem, where the precursor BCECF-AM is employed). […] The BCECF fluorescence was determined in a “Ratio Fluorescence Spectrometer” (Photon Technology International, South Brunswick, N.J., USA) at excitation wavelengths of 505 and 440 nm and an emission wavelength of 535 nm and converted into the pHi by means of calibration curves. […]

The next series has as its system NHE3. The following applies: NHE3 inhibitor; cited from earlier work.
In the next series the test system is Caco-2 cell line. In words: Caco 2 model (transport through Caco-2 monolayers, absorbed fraction). The conditions noted are these: apical to basolateral, pH 7.8, 37° C., test concentration 1 mM / 100 μM, from Papp via sigmoidal calibration curve. The series is classed as in vitro ADME. The procedure: The Caco-2 cell line was acquired from the American Type Culture Collection (ATCC) and maintained in Dulbecco's Modified Eagle medium (high glucose content), supplemented with nonessential amino acids, L-glutamine, penicillin/streptomycin, and 10% strength fetal calf serum. The Caco-2 cell line was then kept in an incubator under a 10% strength CO2 atmosphere at 95% strength relative humidity and 37° C. The cells were grown in cell culture flasks (175 cm^2). For the transport investigations, the Caco-2 cells were inoculated into polycarbonate cell culture inserts (costar Transwells®, pore size: 3 μm, area: 4.71 cm^2) at a cell density of 6.5×10^4 cells/cm^2 and incubated in six-well culture plates with a change of medium after 4 and 8 days and then every second day thereafter. 21 to 25 day-old monolayers were used for the experiments.
In each test series, a 21 day-old monolayer was tested for its properties with ^3H-dextran as a permeability marker. The value of the transfer rate (cumulative) had to be in the range of 2% after 120 min.
After eliminating the growth medium from the apical and the basolateral side, the monolayers were rinsed with the transport buffer (Hank's balanced salt solution, pH 7.8; containing 2.8 g/l glucose).The cells were then equilibrated for 15 min at 37° C. under a 10% strength C02 atmosphere. The HBSS buffer was then removed. The test compounds were dissolved in a mixture of HBSS buffer and DMSO and added to the apical buffer such that a 1% strength (v/v) DMSO solution resulted. The test concentration in the first experiment was 1 mM, and 100 μM in the second. The experiments were carried out at 37° C. and started by the addition of 1.5 ml of test solution to the donor side (apical). Transport buffer without compound was added to the recipient side (basolateral, 2.5 ml). At various points in time, samples were taken from the basolateral side (1 ml) and replaced by fresh buffer solution at 37° C. […]
The compounds were analyzed by means of HPLC.
The apparent permeability coefficient (Papp) was calculated by means of the following equation: [formula]
wherein dc/dt is the flow through the monolayer (μg of compound/ml x s), V is the liquid volume in the collection chamber (ml), A is the surface area size of the monolayer (cm^2) and c0 is the initial concentration (μg of compound/ml) in the donor chamber. The flow through the monolayer was calculated from the cumulative basolateral concentration at the appropriate point in time with the aid of the initially linear data curve (linear up to 60 min). The respective determinations were made in triplicate, such that the calculated Papp value represents the mean of three measurements. […]
(Caco-2 monolayers are a common model of the intestinal barrier.)

T1 sequence (P26433 29-831): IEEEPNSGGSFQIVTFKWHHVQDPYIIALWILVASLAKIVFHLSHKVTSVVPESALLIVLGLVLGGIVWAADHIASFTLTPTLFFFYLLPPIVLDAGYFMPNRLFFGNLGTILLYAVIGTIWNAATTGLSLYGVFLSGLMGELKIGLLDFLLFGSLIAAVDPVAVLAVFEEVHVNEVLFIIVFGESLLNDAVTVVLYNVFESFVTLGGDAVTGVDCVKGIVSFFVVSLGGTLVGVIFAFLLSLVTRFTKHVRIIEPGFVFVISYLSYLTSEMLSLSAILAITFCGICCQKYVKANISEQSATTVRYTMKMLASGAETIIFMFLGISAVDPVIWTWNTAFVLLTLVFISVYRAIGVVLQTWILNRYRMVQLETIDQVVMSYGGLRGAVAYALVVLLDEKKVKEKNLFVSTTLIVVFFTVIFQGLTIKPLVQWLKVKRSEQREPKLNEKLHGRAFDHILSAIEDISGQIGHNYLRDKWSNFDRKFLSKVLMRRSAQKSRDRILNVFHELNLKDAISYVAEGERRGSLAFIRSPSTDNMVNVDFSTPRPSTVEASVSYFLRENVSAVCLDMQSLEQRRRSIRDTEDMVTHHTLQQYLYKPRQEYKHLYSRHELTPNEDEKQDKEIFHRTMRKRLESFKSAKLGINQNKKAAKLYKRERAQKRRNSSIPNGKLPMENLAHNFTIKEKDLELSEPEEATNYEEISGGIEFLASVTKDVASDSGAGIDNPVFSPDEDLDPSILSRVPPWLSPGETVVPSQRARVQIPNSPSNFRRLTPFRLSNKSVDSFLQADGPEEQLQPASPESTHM

In the case of `c1csc(CN[C@@H]2C[C@@H]3C[C@H]2[C@@H]2CCC[C@H]32)c1` [Example 5, exo/endo-(octahydro-4,7-methanoinden-5-yl)-thiophen-2-ylmethylamine Hydrochloride], the IC50 – broadly, the concentration that gives 50% inhibition – against Rat NHE3 was found to be 2.9 µM. For the compound `CC(C)[C@@H](CC[C@@H](C)[C@H]1CC[C@H]2[C@@H]3[C@H](O)C[C@H]4C[C@@H](NCCCNCCCCN)CC[C@]4(C)[C@H]3CC[C@]12C)OS(=O)(=O)O` [squalamine], in the series on NHE3, the “time to reach maximum potency” value is reported as “only after approximately one hour”. As to `c1cncc(CN[C@@H]2C[C@@H]3C[C@H]2[C@@H]2CCCC[C@H]32)c1` (as salt: hydrochloride) [Example 8, exo/endo-(decahydro-1,4-methanonaphthalen-2-yl)-pyridin-3-ylmethyl-amine Hydrochloride], the melting point (in general, the temperature, or range, at which the solid turns liquid) is 283 to 285 °C. In the series on Caco-2 cell line, `C/C(=C\c1cccc(/C=C(\C)C(=O)N=C(N)N)c1)C(=O)N=C(N)N.Cl.Cl` [S 2120, reference compound] came in with an Absorbed fraction below 1%.

In turn, `C/C(=C\c1cc(C)ccc1/C=C(\C)C(=O)NC(=N)N)C(=O)N=C(N)N` [S 3226, reference compound] yielded an Absorbed fraction in the series with Caco-2 cell line below 5%. The compound `c1cnc(CN[C@@H]2C[C@@H]3C[C@H]2[C@@H]2CCC[C@H]32)cn1` (racemic) [Example 18] came in with an Absorbed fraction with Caco-2 cell line of 100%. `c1cncc(CN[C@@H]2C[C@@H]3C[C@H]2[C@H]2CCC[C@@H]32)c1` (relative stereo) [Example 6, exo/exo-(octahydro-4,7-methanoinden-5-yl)-pyridin-3-ylmethylamine Hydrochloride]: at Rat NHE3, the IC50 was found to be 2.1 µM. `c1cncc(CN[C@@H]2C[C@@H]3C[C@H]2[C@@H]2CCC[C@H]32)c1` (racemic) [Example 1, (rac)-exo/endo-(octahydro-4,7-methanoinden-5-yl)pyridin-3-ylmethylamine Hydrochloride] returned a concentration for half-maximal inhibition (IC50) on Rat NHE3 of 0.34 µM. This compound also yielded an Absorbed fraction in the series with Caco-2 cell line of 100%.
